The results in this text go back to US20190293634A1, “ISOLATED INTESTINAL MUCOSA AND USES THEREOF” (priority 2018, published 2019).

One data set deals with CYP24A1 mRNA. Kind of data set: Induction of CYP24A1 transcription in cryopreserved isolated intestinal mucosa (RT-PCR). Format: cell-based, human. The note with it: 24-hr treatment, dose dependent. The procedure:
Gene transcription in the intestinal mucosa was quantified based on reverse transcription-real time PCR (RT-PCR) using the 7500 Fast Real-Time PCR system (Applied Biosystems, Foster City, Calif.). Total RNA was extracted using the mini RNeasy kit (QIAGEN, www.qiagen.com) according to instructions provided by the manufacturer for isolation of total RNA from the intestinal mucosa. At first, reverse transcription (RT) was performed with approximately 200 ng of isolated RNA using the High Capacity cDNA Reverse Transcription Kit (Thermo Fisher Scientific Inc., www.thermofisher.com). Subsequently, quantitative PCR analysis was performed on RT reactions using gene specific primer/probe sets and the Taqman Fast Universal PCR Master Mix (Thermo Fisher). The relative quantity of the target gene was compared with that of the reference transcription of […] (GAPDH) as determined by the […] and as previously described (Fahmi, Kish et al. 2010).
P450 induction in cryopreserved metabolically competent isolated intestinal mucosa was evaluated based on gene transcription. Following a 24-hr treatment period, dose dependent induction of CYP3A4 mRNA by rifampin and 25-hydroxyD3; and, CYP24A1 mRNA by 25-hydroxyD3 were observed. For CYP3A4, the maximal fold of induction was approximately 3-fold for both inducers. Data shown for 25-hydroxyD3 in FIG. 10C.

Data set [1] relates to cryopreserved human intestinal mucosa. Description: Drug-induced enterotoxicity in cryopreserved human intestinal mucosa, viability by cellular ATP contents (Example 6). The note with it: duodenum, jejunum and ileum, three donors, FIGS. 6 and 7. The procedure:
A vial of cryopreserved intestinal mucosa was thawed in a 37 C deg. water bath and added to 50 mL of culture medium (Universal Cryopreservation Plating Medium, In Vitro ADMET Laboratories, Columbia, Md.). The recovered mucosa pellet was suspended in a protein free incubation medium (Hepatocyte Enterocyte Incubation Medium, In Vitro ADMET Laboratories, Columbia, Md.). […] The plate was incubated at 37 deg. C. for 24 hrs after which cell viability was determined by the quantification of cellular ATP contents (ATPLite, Perkin Elmers).

The test system of data set [2] is cryopreserved intestinal mucosa isolated from human duodenum, jejunum, and ileum. Kind of data set: In vitro enterotoxicity assay with cryopreserved intestinal mucosa from duodenum, jejunum and ileum, cellular ATP contents (Example 8). Particulars: for IC50: Homo sapiens, read-out: IC50 (viability by cellular ATP contents), range over regions, duodenum, jejunum, and ileum of Donor 1. How it is done:
(§1) The cryopreserved vials of the isolated intestinal mucosa comprising villi were removed from liquid nitrogen storage and thawed in a 37° C. water bath for approximately 2 min. The contents of each individual vial were decanted into a 50 ml conical tube containing Cryopreserved Enterocyte Recovery Medium, (In Vitro ADMET Laboratories, Columbia, Md.) that was pre-warmed in a 37° C. water bath. The thawed in vitro reagent was recovered by centrifugation at 100×g for 10 min at room temperature. After centrifugation, the supernatant was removed by decanting. A volume of 5 mL of 4° C. Hepatocyte/Enterocyte Incubation Medium, (In Vitro ADMET Laboratories, Columbia, Md.) was added to the intact pellet of enterocytes at the bottom of the conical tube followed by briskly re-pipetting 5 times with a P1000 micropipet to create an even suspension of the intestinal mucosal fragments.
(§2) In vitro cytotoxicity evaluation with cryopreserved intestinal mucosa was performed in 96-well plates. After recovery from cryopreservation as described above, the CHIM pellet was resuspended in 5 mL of Hepatocyte Incubation Medium (IVAL, Columbia, Md.). […] The cryopreserved intestinal mucosa cultures were then incubated in a CO2 cell culture incubator kept at 37° C. in a highly humidified atmosphere of 5% CO2. After an incubation duration of 24 hrs., cell viability was determined based on cellular ATP contents as previously described.
(§3) Data are presented as mean and standard deviation of triplicate incubations derived using the Microsoft Excel 6.0 software. Statistical analysis was performed using student's t-test with the Microsoft Excel 6.0 software, with the probability of p<0.05 to be considered statistically significant. Specific activity (pmol/min/mg protein) of each drug metabolizing enzyme pathway was determined by dividing the total metabolite formed by the incubation time and normalized to protein contents.

Assay in data set [3]: as above
Particulars: human, IC50 (cytotoxicity). How it is done:
as §1, §2, §3

Converted amounts (≈) assume the structure as drawn.

As to `C=C1/C(=C\C=C2/CCC[C@]3(C)[C@@H]([C@H](C)CCCC(C)(C)O)CC[C@@H]23)C[C@@H](O)C[C@@H]1O` [1,25(OH)D3, 1,25-dihydroxyvitamin D3], the figures for the “induction of CYP24A1 transcription (mRNA)” value with CYP24A1 mRNA, in the data set on CYP24A1 mRNA (listed as 25-hydroxyD3) and with CYP24A1 mRNA (listed as vitamin D3) were “approximately 300 fold”, “Approximately 300 fold” and “approx. 300 fold”, respectively.

`COc1ccc2cc([C@H](C)C(=O)O)ccc2c1` [Naproxen, naproxen]: the “viability in isolated intestinal mucosa (in words)” value in data set [1] is given as “dose-dependent decrease in viability”. In data set [2], the IC50 lay in the range of 350 to 390 µg/mL (≈ 1520 to 1690 µM). In addition, the “cytotoxicity in cryopreserved intestinal mucosa (in words)” value in data set [2] (three donors, 24 hrs) is on record as “Dose-dependent cytotoxicity”. Besides, the IC50 at 24 h in data set [3] (Duodenum mucosa, 24 hrs, cellular ATP contents) turned out to be 350 µg/mL (≈ 1520 µM); in data set [3] (Ileum mucosa, 24 hrs, cellular ATP contents) it was 360 µg/mL (≈ 1560 µM); in data set [3] (Jejunum mucosa, 24 hrs, cellular ATP contents) it was 390 µg/mL (≈ 1690 µM).

Regarding `CC(=O)Nc1ccc(O)cc1` [APAP, acetaminophen], in data set [2], the “cytotoxicity in cryopreserved intestinal mucosa (in words)” value is “Dose-dependent cytotoxicity” and the 50% inhibitory concentration (IC50) was 920 to 1180 µg/mL (≈ 6090 to 7810 µM). The molecule further yielded an IC50 at 24 h in data set [3] of 2250 µg/mL (≈ 14900 µM).

Broadly, the IC50 is the point on the concentration scale where inhibition reaches its midpoint.
